Source: patent US20250320206A1, “STAT6 DEGRADERS” (Gilead Sciences, Inc., priority 2024, published 2025)

Key:
[1] = system: Eotaxin-3 release in human whole blood stimulated with IL-4; test: Human Whole Blood Eotaxin-3 Assay (IL-4 stimulated eotaxin-3 release); format: cell-based; settings: IL-4 stimulation, 48 h, values given for compounds with >80% Emax, geometric mean
How it was run: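 Lithium-heparin human whole blood preincubated 2 h at 37° C with 4-fold serially diluted compounds (0.5% DMSO), then stimulated with recombinant human IL-4 ([…]) for 48 h. Eotaxin-3 (CCL26) in supernatant quantified by MSD immunoassay.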

[2] = molecular target: T1, STAT6 (Homo sapiens, UniProt P42226); test: Stat6 Degrader Assay (HiBiT based, HeLa LgBiT clone 4.14); format: cell-based; settings: HeLa LgBiT clone 4.14 HiBiT-STAT6, 4-24 h incubation; values given for compounds with >80% Emax; geometric mean; read-out: STAT6 degradation DC50
T1 construct: These cells express endogenous STAT6; host or cells: HeLa LgBiT clone 4.14
T1 sequence (P42226 1-847): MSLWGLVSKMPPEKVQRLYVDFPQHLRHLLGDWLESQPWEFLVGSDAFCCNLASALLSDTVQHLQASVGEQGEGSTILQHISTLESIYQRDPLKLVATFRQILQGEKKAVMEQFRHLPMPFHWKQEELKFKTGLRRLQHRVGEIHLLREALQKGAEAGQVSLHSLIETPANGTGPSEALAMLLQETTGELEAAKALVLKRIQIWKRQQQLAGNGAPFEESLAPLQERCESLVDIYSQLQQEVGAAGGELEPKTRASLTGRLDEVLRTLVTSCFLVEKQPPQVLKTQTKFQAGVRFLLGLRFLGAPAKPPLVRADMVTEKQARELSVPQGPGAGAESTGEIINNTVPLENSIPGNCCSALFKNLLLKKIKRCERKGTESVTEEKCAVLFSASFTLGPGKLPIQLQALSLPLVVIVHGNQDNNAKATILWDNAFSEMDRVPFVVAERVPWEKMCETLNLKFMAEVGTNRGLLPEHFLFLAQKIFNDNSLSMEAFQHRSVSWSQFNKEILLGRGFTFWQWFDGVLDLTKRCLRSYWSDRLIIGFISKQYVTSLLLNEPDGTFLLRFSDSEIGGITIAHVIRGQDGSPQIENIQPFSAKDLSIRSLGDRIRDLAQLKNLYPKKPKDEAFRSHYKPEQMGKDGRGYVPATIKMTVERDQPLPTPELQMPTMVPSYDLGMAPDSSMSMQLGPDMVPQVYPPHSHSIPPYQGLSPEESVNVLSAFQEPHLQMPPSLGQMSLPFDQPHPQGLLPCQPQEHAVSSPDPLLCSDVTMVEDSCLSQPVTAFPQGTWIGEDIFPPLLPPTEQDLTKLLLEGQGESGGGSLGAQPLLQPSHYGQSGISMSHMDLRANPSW
How it was run: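 HeLa LgBiT clone 4.14 cells with CRISPR HiBiT-tagged endogenous STAT6, 5000 cells/well, compound dosed then incubated 4-24 h at 37° C, 5% CO2. Nano-Glo substrate added, 0.5 h, luminescence read as non-degraded STAT6. Terfenadine 50 μM (cell kill) defines 100% degradation.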

CNc1ccn(-c2ccnc3c2cc([C@H](C)N2CC=C(c4c(C)cc(C(=O)N5CCC(CN6CCN(c7ccc8c(c7)n(C7CC7)c(=O)n8C7CCC(=O)NC7=O)CC6)CC5)cc4F)CC2)n3C)c(=O)c1 (stereo partly drawn) [Example 3u287, 3-(3-cyclopropyl-5-(4-((1-(3-fluoro-5-methyl-4-(1-((S)-1-(1-methyl-4-(4-(methyl-amino)-2-oxopyridin-1 (2H)-yl)-1H-pyrrolo[2,3-b]pyridin-2-yl)ethyl)-1,2,3,6-tetrahydropyridin-4-yl)benzoyl)piperidin-4-yl)methyl)piperazin-1-yl)-2-oxo-2,3-dihydro-1H-benzo[d]imidazol-1-yl)-piperidine-2,6-dione]
EC50 [1]: 2.9 nM
DC50 [2]: 2.7 nM

Cc1cc(C(=O)N2CCC(CN3CCN(Cc4ccc5c(c4)n(C)c(=O)n5C4CCC(=O)NC4=O)CC3)CC2)cc(F)c1C1=CCN([C@@H](C)c2cc3c(-n4cc(F)c5c(c4=O)CCN5)ccnc3n2C)CC1 (stereo partly drawn) [Example 3u85, 3-(5-((4-((1-(3-fluoro-4-(1-((S)-1-(4-(7-fluoro-4-oxo-1,2,3,4-tetrahydro-5H-pyrrolo[3,2-c]pyridin-5-yl)-1-methyl-1H-pyrrolo[2,3-b]pyridin-2-yl)ethyl)-1,2,3,6-tetrahydropyridin-4-yl)-5-methylbenzoyl)piperidin-4-yl)methyl)piperazin-1-yl)methyl)-3-methyl-2-oxo-2,3-dihydro-1H-benzo[d]imidazol-1-yl)piperidine-2,6-dione]
EC50 [1]: 5.2 nM
DC50 [2]: 3.1 nM

C[C@H]1CN(Cc2ccc3c(c2)n(C2CC2)c(=O)n3C2CCC(=O)NC2=O)CCN1CC1CCN(C(=O)c2cc(F)c(C3CCN(Cc4cc5c(-n6ccc7c(c6=O)CCN7)ccnc5n4C)CC3)c(F)c2)CC1 (stereo partly drawn) [Example 3u106, 3-(3-cyclopropyl-5-(((S)-4-((1-(3,5-difluoro-4-(1-((1-methyl-4-(4-oxo-1,2,3,4-tetrahydro-5H-pyrrolo[3,2-c]pyridin-5-yl)-1H-pyrrolo[2,3-b]pyridin-2-yl)methyl)piperidin-4-yl)benzoyl)piperidin-4-yl)methyl)-3-methylpiperazin-1-yl)methyl)-2-oxo-2,3-dihydro-1H-benzo[d]imidazol-1-yl)piperidine-2,6-dione]
EC50 [1]: 0.8 nM
DC50 [2]: 2.3 nM

CNc1cc(=O)n(-c2ccnc3c2cc([C@H](C)N2CC=C(c4c(C)cc(C(=O)N(C)c5ccc(N6CCN(Cc7ccc8c(c7)C7(CC7)C(=O)N8C7CCC(=O)NC7=O)CC6)nc5)cc4F)CC2)n3C)cc1F (stereo partly drawn) [Example 3u239, N-(6-(4-((1′-(2,6-dioxopiperidin-3-yl)-2′-oxospiro[cyclopropane-1,3′-indolin]-5′-yl)-methyl)piperazin-1-yl)pyridin-3-yl)-3-fluoro-4-(1-((S)-1-(4-(5-fluoro-4-(methylamino)-2-oxopyridin-1 (2H)-yl)-1-methyl-1H-pyrrolo[2,3-b]pyridin-2-yl)ethyl)-1,2,3,6-tetrahydropyridin-4-yl)-N,5-dimethyl-benzamide]
EC50 [1]: 1.2 nM
DC50 [2]: 0.1 nM

CNc1ccn(-c2ccnc3c2cc([C@H](C)N2CC=C(c4c(C)cc(C(=O)N5CCC(CN6CCN(Cc7cc8c(cc7F)N([C@H]7CCC(=O)NC7=O)C(=O)C87CC7)C[C@@H]6C)CC5)cc4F)CC2)n3C)c(=O)c1 (single isomer, unassigned) [Example 3u194]
EC50 [1]: 0.9 nM
DC50 [2]: 1.7 nM

CNc1ccn(-c2ccnc3c2cc([C@H](C)N2CC=C(c4c(C)cc(C(=O)N5CCC(CN6CCN(Cc7cc8c(cc7F)N([C@@H]7CCC(=O)NC7=O)C(=O)C87CC7)C[C@@H]6C)CC5)cc4F)CC2)n3C)c(=O)c1 (single isomer, unassigned) [Example 3u195]
EC50 [1]: 2.2 nM
DC50 [2]: 1.6 nM

CNc1cc(=O)n(-c2ccnc3c2cc(CN2CC=C(c4c(F)cc(C(=O)N5CCC(CN6CCN(Cc7ccc8c(c7)n(C)c(=O)n8[C@@H]7CCC(=O)NC7=O)C[C@@H]6C)CC5)cc4F)CC2)n3C)cc1F (single isomer, unassigned) [Example 3u55]
EC50 [1]: 3.1 nM
DC50 [2]: 7.6 nM

Cc1cc(C(=O)N2CCC(CN3CCN(Cc4ccc5c(c4)C(C)(C)C(=O)N5C4CCC(=O)NC4=O)C[C@@H]3C)CC2)cc(F)c1C1=CCN([C@@H](C)c2cc3c(-n4cc(F)c(N)cc4=O)ccnc3n2C)CC1 (stereo partly drawn) [Example 3u169, 3-(5-(((S)-4-((1-(4-(1-((S)-1-(4-(4-amino-5-fluoro-2-oxopyridin-1 (2H)-yl)-1-methyl-1H-pyrrolo[2,3-b]pyridin-2-yl)ethyl)-1,2,3,6-tetrahydropyridin-4-yl)-3-fluoro-5-methylbenzoyl)piperidin-4-yl)methyl)-3-methylpiperazin-1-yl)methyl)-3,3-dimethyl-2-oxoindolin-1-yl)piperidine-2,6-dione]
EC50 [1]: 14.6 nM
DC50 [2]: 4.1 nM

CNc1ccn(-c2ccnc3c2cc(CN2CCC(c4c(F)cc(C(=O)N5CCC(CN6CCN(Cc7ccc8c(c7)C(C)(C)C(=O)N8[C@@H]7CCC(=O)NC7=O)CC6)CC5)cc4F)CC2)n3C)c(=O)c1 (single isomer, unassigned) [Example 3u18]
EC50 [1]: 18.6 nM
DC50 [2]: 8.4 nM

CNc1cc(=O)n(-c2ccnc3c2cc([C@H](C)N2CC=C(c4c(F)cc(C(=O)N5CCC(CN6CCN(Cc7ccc8c(c7)n(C7CC7)c(=O)n8[C@@H]7CCC(=O)NC7=O)C[C@@H]6C)CC5)cc4F)CC2)n3C)cc1F (single isomer, unassigned) [Example 3u130]
EC50 [1]: 1.8 nM
DC50 [2]: 1.3 nM

CNc1cc(=O)n(-c2ccnc3c2cc([C@H](C)N2CC=C(c4c(C)cc(C(=O)N5CCC(CN6CCN(Cc7ccc8c(c7)C7(CCC7)C(=O)N8C7CCC(=O)NC7=O)CC6)CC5)cc4F)CC2)n3C)cc1F (stereo partly drawn) [Example 3u258, 3-(5′-((4-((1-(3-fluoro-4-(1-((S)-1-(4-(5-fluoro-4-(methylamino)-2-oxopyridin-1 (2H)-yl)-1-methyl-1H-pyrrolo[2,3-b]pyridin-2-yl)ethyl)-1,2,3,6-tetrahydropyridin-4-yl)-5-methylbenzoyl)piperidin-4-yl)methyl)piperazin-1-yl)methyl)-2′-oxospiro[cyclobutane-1,3′-indolin]-1′-yl)piperidine-2,6-dione]
EC50 [1]: 7 nM
DC50 [2]: 3.1 nM

Cc1cc(C(=O)N2CCC(CN3CCN(Cc4cc5c(cc4F)n([C@H]4CCC(=O)NC4=O)c(=O)n5C)CC3)CC2)cc(F)c1C1=CCN([C@@H](C)c2cc3c(-n4ccc5c(c4=O)CCN5)ccnc3n2C)CC1 (single isomer, unassigned) [Example 3u75]
EC50 [1]: 1 nM
DC50 [2]: 0.6 nM

C[C@H]1CN(Cc2ccc3c(c2)C2(CC2)C(=O)N3C2CCC(=O)NC2=O)CCN1CC1CCN(C(=O)c2cc(F)c(C3CCN(Cc4cc5c(-n6ccc7c(c6=O)CCN7)ccnc5n4C)CC3)c(F)c2)CC1 (stereo partly drawn) [Example 3u69, 3-(5′-(((S)-4-((1-(3,5-difluoro-4-(1-((1-methyl-4-(4-oxo-1,2,3,4-tetrahydro-5H-pyrrolo[3,2-c]pyridin-5-yl)-1H-pyrrolo[2,3-b]pyridin-2-yl)methyl)piperidin-4-yl)benzoyl)piperidin-4-yl)methyl)-3-methylpiperazin-1-yl)methyl)-2′-oxospiro[cyclopropane-1,3′-indolin]-1′-yl)piperidine-2,6-dione]
EC50 [1]: 2.4 nM
DC50 [2]: 1.5 nM

CNc1cc(=O)n(-c2ccnc3c2cc([C@H](C)N2CC=C(c4c(C)cc(C(=O)N5CCC(CN6CCN(Cc7ccc8c(c7)C(C)(C)C(=O)N8[C@@H]7CCC(=O)NC7=O)C[C@@H]6C)CC5)cc4F)CC2)n3C)cc1F (single isomer, unassigned) [Example 3u174]
EC50 [1]: 11 nM
DC50 [2]: 3.8 nM

CNc1ccn(-c2ccnc3c2cc([C@H](C)N2CCC(c4ccc(C(=O)N5CCC(CN6CCN(Cc7ccc8c(c7)C7(CC7)C(=O)N8C7CCC(=O)NC7=O)C[C@@H]6C)CC5)cc4)CC2)n3C)c(=O)c1 (mixture of isomers) [Example 3u5, 3-(5′-(((S)-3-methyl-4-((1-(4-(1-((S)-1-(1-methyl-4-(4-(methylamino)-2-oxopyridin-1 (2H)-yl)-1H-pyrrolo[2,3-b]pyridin-2-yl)ethyl)piperidin-4-yl)benzoyl)piperidin-4-yl)methyl)piperazin-1-yl)-methyl)-2′-oxospiro[cyclopropane-1,3′-indolin]-1′-yl)piperidine-2,6-dione]
EC50 [1]: 0.8 nM
DC50 [2]: 1 nM
